Experimental data published in patent US20220098197A1, “SALTS OF HETEROCYCLIC COMPOUND AND USE THEREOF” (priority 2019, published 2022).

Columns and labels:
Assay type in all cases: in vivo, Balb/c mice
[1] = system: LPS-induced ALI mice; experiment: LPS-induced ALI model: lung weight coefficient; settings: CT-NA 10 or 30 mg/kg (P<0.01, dose-dependent), Dex 1 mg/kg; 24 hrs after LPS
Method: (§1) Specific pathogen-free (SPF) Balb/c mice (♂/♀; 20-26 g; 8 weeks old) were purchased from Shanghai SIPPR-BK Experimental Animal Co., Ltd. Mice were kept in an isolated ventilated cage in an environment of 40-60% humidity, 24±2° C., and 12 hrs/12 hrs dark-light cycle, and had free access to food and water. The method for preparing the LPS-induced ALI model was simply described as follows. The mice were randomly divided into a control group (12 mice) and an LPS group (48 mice). The LPS group (48 mice) was further divided into four subgroups (12 mice in each subgroup). […] 24 hrs after LPS challenge, the oxygen saturation (SO2) of all mice was measured by a Moor VMS-OXY™ instrument which measured SO2 (%) in the microcirculation at the wavelength range of 500 to 650 nm. […]
(§2) The mice were euthanized to expose the trachea, and then the right lungs were lavaged three times with 0.4 mL/time of sterile normal saline containing bovine serum albumin (BSA) and 5000 IU/L heparin to collect the BALF via tracheal tube. […] The removed lung tissues were weighted after aspirating the surface blood, and the lung weight coefficient was calculated. The lung weight coefficient was an indicator of pulmonary edema, and it was measured by dividing the individual lung weight of each mouse by its total body weight.

[2] = system: LPS-induced ALI mice; experiment: LPS-induced ALI model: BALF cell counting
Method: as §1, §2

[3] = system: CS-induced ALI mice; experiment: CS-induced lung injury model: pulmonary histopathology (H&E)
Method: Model preparation: The mice were randomly divided into 5 groups (12 mice in each group), which were the control group (the mice were exposed to fresh air), the saline group (the mice were exposed to cigarette smoke), dexamethasone (Dex) group (1 mg/kg) (the mice were exposed to cigarette smoke), CT-NA 10 mg/kg group and CT-NA 30 mg/kg group (the mice were exposed to cigarette smoke). According to the grouping, the mice were intragastrically administered saline, Dex and CT-NA, respectively. Thereafter, the mice were exposed to fresh air or cigarette smoke generated from 3R4F research-grade cigarettes (containing about 600 mg TPM/m^3 and 29.9 mg nicotine/m^3) in a cuboid plastic box (65×50x×45 cm). Ten cigarettes were burned every day for seven days. After one cigarette was burned, the next cigarette was ignited. The daily body weight and general condition of the mice were checked. 24 hrs after the last exposure to the cigarette smoke, the partial pressure of oxygen (PO2) of all mice was measured by the Moor VMS-OXY™ measuring instrument, which was used to measure the oxygenated/deoxygenated hemoglobin concentration and oxygen saturation (percentage) in the microcirculation at the wavelength range of 500 to 650 nm. Then, all mice were euthanized to collect bronchoalveolar lavage fluid (BALF) for measuring the total number of inflammatory cells, cytokine levels and albumin concentration. […]

[4] = system: LPS-induced ALI mice; experiment: LPS-induced ALI model: histological examination (H&E)
Method: as §1, with “subgroup). The unanaesthetized mice in the four subgroups of LPS were intragastrically administered with normal saline (NS), CT-NA at 10 mg/kg or 30 mg/kg, and Dex at 1 mg/kg, respectively.” for “subgroup).”
The lower lobe of the left lung of each mouse was inflated with neutral buffered 10% formalin instilled at room temperature under constant pressure of 22 to 25 cm H2O for 48 hrs. […] Pulmonary edema, hemorrhage, alveolar wall thickening and infiltration of neutrophils and inflammatory cells were counted and scored to evaluate the severity of lung injury. […] The total lung injury score was expressed as the sum of the four criteria. […]

## CN([C@@H]1CCc2c(CC(=O)[O-])c3cccnc3n2C1)S(=O)(=O)c1ccc(F)cc1.[Na+] [Sodium salt hydrate]
[1]
  lung wet weight coefficient: notably reduced
[2]; CT-NA 30 mg/kg versus 1 mg/kg Dex
  BALF cell infiltration, performance compared with Dex: essentially same performance as that of 1 mg/kg Dex
[2]; CT-NA 10 and 30 mg/kg intragastric 1 h before and 12 hrs after LPS, BALF 24 hrs after LPS, P<0.01
  LPS-induced increase of total cells, neutrophils and macrophages in BALF: significantly and dose-dependently attenuated
[3]; CT-NA 10 and 30 mg/kg, Dex 1 mg/kg, 5-point scoring, dose-dependent, p<0.01
  mean pathological scores: considerably reduced
[3]; pretreatment with CT-NA 10 and 30 mg/kg or Dex 1 mg/kg, H&E
  CS-induced pulmonary histopathological changes: strikingly improved
[4]; CT-NA 10 mg/kg (P<0.05) and 30 mg/kg (P<0.01), Dex 1 mg/kg (P<0.01)
  pathological scores: considerably reduced
[4]; CT-NA 10 or 30 mg/kg (dose dependence) or Dex 1 mg/kg, H&E
  LPS-induced pulmonary histopathological changes: significant reduction
